Values after ≈ are worked out from the molar mass of the structure shown. Read-outs that look alike come from different tables or passages of the source.
Columns and labels:
Mycobacterium bovis BCG [1] = experiment: microbe, parasite or virus in culture; type: cell-based; conditions: for MIC: Mycobacterium tuberculosis variant bovis BCG, BCG, 144 h
M. tuberculosis H37Rv = experiment: In vitro tests on Mycobacterium tuberculosis (MIC in 7H11 agar medium)
[2] = system: mc^2155 strain of M. smegmatis; experiment: In vitro assays on Mycobacterium smegmatis (MIC, resazurin coloration microdilution method); type: cell-based
Procedure: All molecules to be tested are prepared in dimethylsulfoxide (DMSO) at a concentration of 50 mg/ml and frozen until use.
20 μl of each dilution for each molecule are prepared in 100 μl of the Dubos culture medium (Difco, USA), and then distributed into 96 well plates, at a concentration between 100-0.75 μg/ml.
Control wells containing DMSO alone and ethambutol (Etibi®, Myambutol®) or ofloxacine (synthesis antibiotic belonging to the fluoroquinolone family) are included at a concentration between […].
The plates are covered, sealed and incubated at 37° C. during 48 hours.
Minimal Inhibitory Concentrations (MIC) are determined using the resazurin coloration microdilution method. The powdery resazurin salt (Sigma) is prepared at a concentration of 0.01% (weight/vol) in distilled water, and the solution is then sterilized by 0.22 μm membrane filtration, and kept at 4° C. during one week.
Into the plates as incubated during 48 hours, 30 μl of a resazurin solution are added in each well. The plates are then incubated at 37° C. during 24 hours. The colour variation from blue to pink is indicative of a decrease in resazurin which corresponds to the development of the bacterial colony. The MIC is determined as being the lowest concentration to prevent a colour change. The optical density of each well is measured at 530-630 nm using a micro-plate reader, The MIC is determined by drawing the dose-optical density response curve.

M. avium 101 = experiment: In vitro tests on Mycobacterium avium (MIC in 7H11 agar medium); type: cell-based; conditions: for MIC: Mycobacterium avium, 101, read-out: MIC on Mycobacterium avium
Source text: All tests are repeated three times.

Mycobacterium bovis BCG [3] = type: in vivo, C57B1/6 female mice; conditions: BCG-infected mice, 20 mg/kg/day intraperitoneally, 5 days
M. smegmatis = conditions: cited from earlier work
[4] = read-out: Minimal Inhibitory Concentration MIC (μg/mL)
[5] = read-out: Minimal Inhibitory Concentration MIC (μmol/L)
[6] = Mycobacterium bovis BCG, 6 days at 37° C., 7H9 medium

Compound | MIC (Mycobacterium bovis BCG [1]; [4]) [µg/mL] | MIC (Mycobacterium bovis BCG [1]; [5]) [µmol/L] | Activity against Mycobacterium bovis BCG in vitro (in words) (Mycobacterium bovis BCG [1]) | other results
O=c1c2ccccc2c2c3c(cc[n+]2[O-])c2ccccc2n13 [N-oxide-benzo[e]canthin-6-one] | 10 | 34.8 |  | 
Nc1cc(=O)n2c3ccccc3c3ccnc1c32 | 10 | 42.5 |  | 
O=c1c2nccnc2c2nccc3c4ccccc4n1c32 [Pyrazine[e]canthin-6-one] | 10 | 36.8 |  | 
CC1COc2c(N3CCN(C)CC3)c(F)cc3c(=O)c(C(=O)O)cn1c23 (stereo not shown) [ofloxacin] |  |  |  | MIC on Mycobacterium tuberculosis (M. tuberculosis H37Rv; H37Rv, 7H11 agar, 21-30 days at 37° C.): 1 µg/mL (≈ 2.77 µM); MIC ([2]; Mycolicibacterium smegmatis, mc^2155 strain, Dubos medium, resazurin, read-out: MIC (CMI) on Mycobacterium smegmatis): 1 µg/mL (≈ 2.77 µM); MIC (M. avium 101): 6.2 µg/mL (≈ 17.2 µM)
COc1ccc2c(c1)c1ccnc3ccc(=O)n2c31 [10-methoxy-canthin-6-one] | 7.5 | 30 |  | 
O=c1ccc2nccc3c4ccccc4n1c23 [Canthin-6-one] | 7.5 | 34.1 | most active | Efficiency against Mycobacterium tuberculosis (in words) (M. tuberculosis H37Rv): efficient; Activity against Mycobacterium bovis BCG in vitro (in words) (Mycobacterium bovis BCG [1]; listed as Canthin-5-one): surprising efficiency; Efficiency against Mycobacterium smegmatis (in words) [2]: efficient; In vivo antituberculous efficiency (number of bacteria in spleen, liver and lungs; in words) (Mycobacterium bovis BCG [3]): efficient; Efficiency against Mycobacterium avium (in words) (M. avium 101): efficient
NNC(=O)c1ccncc1 [isoniazide, reference compound] | 0.1 | 0.73 |  | Susceptibility of M. smegmatis (M. smegmatis; isoniazide 10 μg/mL): resistant; Minimal Inhibitory Concentration MIC (μg/mL) (Mycobacterium bovis BCG [1]; [6]): 0.1 µg/mL; MIC (M. avium 101): 0.1 µg/mL (≈ 0.729 µM)
O=c1c2ccccc2c2nccc3c4ccccc4n1c32 [Benzo[e]canthin-6-one] | 2.5 to 5 | 9.2 to 18.4 | most active | 
O=c1ccc2c3c(cc[n+]2[O-])c2ccccc2n13 [N-oxide-canthin-6-one] | 2.5 to 5 | 10.6 to 21.2 | most active | 
O=c1ccc2c3c(cc[n+]2CCBr)c2ccccc2n13.[Br-] [N-bromoéthyl-canthin-6-one bromide] | 1 to 5 | 3 to 15.3 | most active | 
ethambutol [reference compound] |  |  |  | Susceptibility of M. smegmatis (M. smegmatis; ethambutol 5 μg/mL): reacts; Minimal Inhibitory Concentration MIC (μg/mL) (Mycobacterium bovis BCG [1]; [6]): 5 µg/mL; Minimal Inhibitory Concentration MIC (μmol/L) (Mycobacterium bovis BCG [1]; [6]): 24.5 µmol/L; MIC (CMI) on Mycobacterium smegmatis ([2]; mc^2155 strain, Dubos medium, resazurin): 0.5 µg/mL

— patent publication US20110059977A1 (priority 2006, published 2011)
